“And” between values parts separate entries of the source, which are not always exact repeats. Equal values may be shown once.
Experiment: Food-effect crossover study, adverse events after single 20 mg amifampridine phosphate in healthy subjects (Examples 10, 11)
Type: in vivo
Description: This was a randomized, open-label, 2-treatment, 2-period crossover study with 44 completed subjects to assess the safety, tolerability, and the effect of food on the relative bioavailability of a single dose of amifampridine phosphate.
Safety was evaluated for all subjects who take at least one dose of 3,4-DAP. Safety was evaluated by recording the incidence of adverse events (AEs), physical examination, vital signs, concomitant medications, clinical laboratory assessments, and 12-lead electrocardiogram (ECG).
Analysis for the following safety parameters was carried out on the Safety Population: AEs which included all AEs, AEs by severity, drug-related AEs, deaths, SAEs, AEs leading to study discontinuation, and most frequent AEs, standard clinical laboratory tests, vital signs, ECG measurements, routine physical examinations, and prior and concomitant medications. The cut-off for frequency of AEs reported was determined based on the data. No formal statistical testing was performed for the safety analyses; only descriptive statistics were provided. Appropriate descriptive statistics for the safety data were determined using SAS Version 9.2.
AEs were coded according to the Medical Dictionary for Regulatory Activities (MedDRA; Version 13.0). […] The occurrence of AEs was assessed continuously from the time the subject signed the VID and consent. The reporting period for non-serious AEs was from the first dose to the final study visit. The investigator determined the severity of each event and the relationship of an AE to the IP and recorded it on the source documents and AE CRF. The nature, time of onset, duration, severity, and relationship to study drug was documented, including documentation of investigator assessment and review. All events were assessed to determine if the AE was serious.
The Investigator determined the severity of each event and the event was recorded on the source documents and AE CRF. A coding of “mild” meant there was no limitation of usual activities, “moderate” meant there was some limitation of usual activities, “severe” meant there was an inability to carry out usual activities.
The reporting period for AEs that met the criteria of an SAE began from the time of signing the VID and consent form through follow-up or early termination. […] Clinical Laboratory Assessments

Nc1ccncc1N.O=P(O)(O)O [amifampridine phosphate, 3,4-diaminopyridine phosphate]
Diarrhoea, drug-related AE: % of subjects (Fed N=46): (0%) [0] | Diarrhoea, drug-related AE: events (Fed N=46): (0%) [0] | Diarrhoea, drug-related AE: subjects (Fed N=46): 0 | Discontinued due to adverse events: % of subjects (Fed N=46): 2% | Discontinued due to adverse events: events (Fed N=46): 1 | Discontinued due to adverse events: subjects (Fed N=46): 1 | Dizziness, drug-related AE: % of subjects (Fed N=46): 4% | Dizziness, drug-related AE: events (Fed N=46): 2 | Dizziness, drug-related AE: subjects (Fed N=46): 2 | Dysgeusia, drug-related AE: % of subjects (Fed N=46): 4% | Dysgeusia, drug-related AE: events (Fed N=46): 2 | Dysgeusia, drug-related AE: subjects (Fed N=46): 2 | Fatigue, drug-related AE: % of subjects (Fed N=46): 7% | Fatigue, drug-related AE: events (Fed N=46): 3 | Fatigue, drug-related AE: subjects (Fed N=46): 3 | Feeling Hot, drug-related AE: % of subjects (Fed N=46): (0%) [0] | Feeling Hot, drug-related AE: events (Fed N=46): (0%) [0] | Feeling Hot, drug-related AE: subjects (Fed N=46): 0 | Flushing, drug-related AE: % of subjects (Fed N=46): 2% | Flushing, drug-related AE: events (Fed N=46): 1 | Flushing, drug-related AE: subjects (Fed N=46): 1 | Gastrointestinal Disorders Total, drug-related AE: % of subjects (Fed N=46): 4% | Gastrointestinal Disorders Total, drug-related AE: events (Fed N=46): 2 | Gastrointestinal Disorders Total, drug-related AE: subjects (Fed N=46): 2 | General Disorders and Administration Site Conditions Total, drug-related AE: % of subjects (Fed N=46): 7% | General Disorders and Administration Site Conditions Total, drug-related AE: events (Fed N=46): 3 | General Disorders and Administration Site Conditions Total, drug-related AE: subjects (Fed N=46): 3 | Headache, drug-related AE: % of subjects (Fed N=46): 2% | Headache, drug-related AE: events (Fed N=46): 1 | Headache, drug-related AE: subjects (Fed N=46): 1 | Hypoaesthesia Facial, drug-related AE: % of subjects (Fed N=46): (0%) [0] | Hypoaesthesia Facial, drug-related AE: events (Fed N=46): (0%) [0] | Hypoaesthesia Facial, drug-related AE: subjects (Fed N=46): 0 | Hypoaesthesia Oral, drug-related AE: % of subjects (Fed N=46): 7% | Hypoaesthesia Oral, drug-related AE: events (Fed N=46): 3 | Hypoaesthesia Oral, drug-related AE: subjects (Fed N=46): 3 | Hypoaesthesia, drug-related AE: % of subjects (Fed N=46): (0%) [0] | Hypoaesthesia, drug-related AE: events (Fed N=46): (0%) [0] | Hypoaesthesia, drug-related AE: subjects (Fed N=46): 0 | Nausea, drug-related AE: % of subjects (Fed N=46): 2% | Nausea, drug-related AE: events (Fed N=46): 1 | Nausea, drug-related AE: subjects (Fed N=46): 1 | Nervous System Disorders Total, drug-related AE: % of subjects (Fed N=46): 37% | Nervous System Disorders Total, drug-related AE: events (Fed N=46): 31 | Nervous System Disorders Total, drug-related AE: subjects (Fed N=46): 17 | Paraesthesia Oral, drug-related AE: % of subjects (Fed N=46): 28% | Paraesthesia Oral, drug-related AE: events (Fed N=46): 15 | Paraesthesia Oral, drug-related AE: subjects (Fed N=46): 13 | Paraesthesia, drug-related AE: % of subjects (Fed N=46): 15% | Paraesthesia, drug-related AE: events (Fed N=46): 8 | Paraesthesia, drug-related AE: subjects (Fed N=46): 7 | Possibly or probably related AEs, Mild: % of subjects (Fed N=46): 46% | Possibly or probably related AEs, Mild: events (Fed N=46): 37 | Possibly or probably related AEs, Mild: subjects (Fed N=46): 21 | Possibly or probably related AEs, Moderate: % of subjects (Fed N=46): (0%) [0] | Possibly or probably related AEs, Moderate: events (Fed N=46): (0%) [0] | Possibly or probably related AEs, Moderate: subjects (Fed N=46): 0 | Possibly or probably related AEs, Severe: % of subjects (Fed N=46): (0%) [0] | Possibly or probably related AEs, Severe: events (Fed N=46): (0%) [0] | Possibly or probably related AEs, Severe: subjects (Fed N=46): 0 | Possibly or probably related AEs, Total: % of subjects (Fed N=46): 46% | Possibly or probably related AEs, Total: events (Fed N=46): 37 | Possibly or probably related AEs, Total: subjects (Fed N=46): 21 | Serious adverse events: % of subjects (Fed N=46): (0%) [0] | Serious adverse events: events (Fed N=46): (0%) [0] | Serious adverse events: subjects (Fed N=46): 0 | Skin and Subcutaneous Tissue Disorders Total, drug-related AE: % of subjects (Fed N=46): (0%) [0] | Skin and Subcutaneous Tissue Disorders Total, drug-related AE: events (Fed N=46): (0%) [0] | Skin and Subcutaneous Tissue Disorders Total, drug-related AE: subjects (Fed N=46): 0 | Vascular Disorders Total, drug-related AE: % of subjects (Fed N=46): 2% | Vascular Disorders Total, drug-related AE: events (Fed N=46): 1 | Vascular Disorders Total, drug-related AE: subjects (Fed N=46): 1 | All treatment emergent AEs, Total: subjects (Fed N=46, phosphate): 24 and 23 | Abdominal Pain Upper, drug-related AE: % of subjects (Female N=16): 6% | Abdominal Pain Upper, drug-related AE: events (Female N=16): 1 | Abdominal Pain Upper, drug-related AE: subjects (Female N=16): 1 | Abdominal Pain, drug-related AE: % of subjects (Female N=16): 13% | Abdominal Pain, drug-related AE: events (Female N=16): 2 | Abdominal Pain, drug-related AE: subjects (Female N=16): 2 | Abdominal Tenderness, drug-related AE: % of subjects (Female N=16): 6% | Abdominal Tenderness, drug-related AE: events (Female N=16): 1 | Abdominal Tenderness, drug-related AE: subjects (Female N=16): 1 | Acne, drug-related AE: % of subjects (Female N=16): (0%) [0] | Acne, drug-related AE: events (Female N=16): (0%) [0] | Acne, drug-related AE: subjects (Female N=16): 0 | All treatment emergent AEs, Mild: % of subjects (Female N=16): 75% | All treatment emergent AEs, Mild: events (Female N=16): 41 | All treatment emergent AEs, Mild: subjects (Female N=16): 12 | All treatment emergent AEs, Moderate: % of subjects (Female N=16): 13% | All treatment emergent AEs, Moderate: events (Female N=16): 2 | All treatment emergent AEs, Moderate: subjects (Female N=16): 2 | All treatment emergent AEs, Severe: % of subjects (Female N=16): (0%) [0] | All treatment emergent AEs, Severe: events (Female N=16): (0%) [0] | All treatment emergent AEs, Severe: subjects (Female N=16): 0 | All treatment emergent AEs, Total: events (Female N=16): 43 | All treatment emergent AEs, Total: subjects (Female N=16): 12 | Constipation, drug-related AE: % of subjects (Female N=16): 6% | Constipation, drug-related AE: events (Female N=16): 1 | Constipation, drug-related AE: subjects (Female N=16): 1 | Diarrhoea, drug-related AE: % of subjects (Female N=16): 6% | Diarrhoea, drug-related AE: events (Female N=16): 1 | Diarrhoea, drug-related AE: subjects (Female N=16): 1 | Discontinued due to adverse events: % of subjects (Female N=16): (0%) [0] | Discontinued due to adverse events: events (Female N=16): (0%) [0] | Discontinued due to adverse events: subjects (Female N=16): 0 | Dizziness, drug-related AE: % of subjects (Female N=16): 25% | Dizziness, drug-related AE: events (Female N=16): 5 | Dizziness, drug-related AE: subjects (Female N=16): 4 | Dysgeusia, drug-related AE: % of subjects (Female N=16): (0%) [0] | Dysgeusia, drug-related AE: events (Female N=16): (0%) [0] | Dysgeusia, drug-related AE: subjects (Female N=16): 0 | Fatigue, drug-related AE: % of subjects (Female N=16): 13% | Fatigue, drug-related AE: events (Female N=16): 2 | Fatigue, drug-related AE: subjects (Female N=16): 2 | Feeling Hot, drug-related AE: % of subjects (Female N=16): (0%) [0] | Feeling Hot, drug-related AE: events (Female N=16): (0%) [0] | Feeling Hot, drug-related AE: subjects (Female N=16): 0 | Flushing, drug-related AE: % of subjects (Female N=16): 6% | Flushing, drug-related AE: events (Female N=16): 1 | Flushing, drug-related AE: subjects (Female N=16): 1 | Gastrointestinal Disorders Total, drug-related AE: % of subjects (Female N=16): 31% | Gastrointestinal Disorders Total, drug-related AE: events (Female N=16): 8 | Gastrointestinal Disorders Total, drug-related AE: subjects (Female N=16): 5 | General Disorders and Administration Site Conditions Total, drug-related AE: % of subjects (Female N=16): 13%
